Columns and labels:
Conditions in all cases: 72 h
Caco-2 [1] = assay: cell viability relative to DMSO; higher = less toxic
Calu-3 [2] = assay: as above
HepG2 [3] = assay: as above
U2OS [4] = assay: as above
Vero E6 [5] = assay: as above
Caco-2 [6] = assay: relative viability EC50 (midpoint between 100% and the lowest measured viability); higher = less toxic
Calu-3 [7] = assay: as above
HepG2 [8] = assay: as above
U2OS [9] = assay: as above
Vero E6 [10] = assay: as above
Caco-2 [11] = assay: drug sensitivity score (DSS) for viability; higher = more toxic; extreme values may be limits of the assay
Calu-3 [12] = assay: as above
HepG2 [13] = assay: as above
U2OS [14] = assay: as above
Vero E6 [15] = assay: as above

SMILES | cell viability (Caco-2 [1]; 1 nM) [%] | cell viability (Caco-2 [1]; 10 nM) [%] | cell viability (Caco-2 [1]; 100 nM) [%] | cell viability (Caco-2 [1]; 1000 nM) [%] | cell viability (Caco-2 [1]; 10000 nM) [%] | cell viability (Calu-3 [2]; 1 nM) [%] | cell viability (Calu-3 [2]; 10 nM) [%] | cell viability (Calu-3 [2]; 100 nM) [%] | cell viability (Calu-3 [2]; 1000 nM) [%] | cell viability (Calu-3 [2]; 10000 nM) [%] | cell viability (HepG2 [3]; 1 nM) [%] | cell viability (HepG2 [3]; 10 nM) [%] | cell viability (HepG2 [3]; 100 nM) [%] | cell viability (HepG2 [3]; 1000 nM) [%] | cell viability (HepG2 [3]; 10000 nM) [%] | cell viability (U2OS [4]; 1 nM) [%] | cell viability (U2OS [4]; 10 nM) [%] | cell viability (U2OS [4]; 100 nM) [%] | cell viability (U2OS [4]; 1000 nM) [%] | cell viability (U2OS [4]; 10000 nM) [%] | cell viability (Vero E6 [5]; 1 nM) [%] | cell viability (Vero E6 [5]; 10 nM) [%] | cell viability (Vero E6 [5]; 100 nM) [%] | cell viability (Vero E6 [5]; 1000 nM) [%] | cell viability (Vero E6 [5]; 10000 nM) [%] | relative viability EC50 (Caco-2 [6]) [µM] | relative viability EC50 (Calu-3 [7]) [µM] | relative viability EC50 (HepG2 [8]) [µM] | relative viability EC50 (U2OS [9]) [µM] | relative viability EC50 (Vero E6 [10]) [µM] | drug sensitivity score (Caco-2 [11]) | drug sensitivity score (Calu-3 [12]) | drug sensitivity score (HepG2 [13]) | drug sensitivity score (U2OS [14]) | drug sensitivity score (Vero E6 [15])
CCCCC/C=C\C/C=C\C/C=C\C/C=C\CCCC(=O)Nc1ccc(O)cc1 [AM-404] | 95.3 | 98.2 | 103 | 100 | 95 | 104 | 93.1 | 96.8 | 99.1 | 102 | 110 | 104 | 93.9 | 107 | 87.6 | 96.9 | 95.2 | 100 | 93.8 | 96.3 | 105 | 106 | 92.9 | 102 | 96.5 | > 10 | > 10 | > 10 | > 10 | > 10 | 0 | 0 | 0 | 0 | 0
COc1ccc2c(OCc3nnc4ccc(-c5ccccc5)nn34)ccnc2c1 [AMG-208] | 99.8 | 95.9 | 104 | 100 | 91 | 108 | 99.8 | 97.3 | 92.2 | 97 | 99.4 | 99.9 | 101 | 97 | 104 | 104 | 95.5 | 102 | 103 | 99 | 95.6 | 92.1 | 93.9 | 104 | 91.2 | > 10 | > 10 | > 10 | > 10 | > 10 | 0 | 0 | 0 | 0 | 0
O=C(Nc1ccccc1C(=O)NC1CCCCNC1=O)c1cc2ccccc2s1 (stereo not given) [ANA-12] | 90.9 | 97.4 | 96.1 | 106 | 96.4 | 99.6 | 95.3 | 101 | 94.7 | 87.7 | 104 | 93.1 | 100 | 91.4 | 98.4 | 97.8 | 101 | 91.5 | 104 | 96.7 | 100 | 99.3 | 99.8 | 89.5 | 104 | > 10 | > 10 | > 10 | > 10 | > 10 | 0 | 0.3 | 0 | 0 | 0
CC(C)[C@H](C(=O)Nc1ccc(C(=O)NO)cc1)c1ccccc1 [AR-42] | 101 | 95 | 97.6 | 18 | 1.2 | 96.5 | 90.5 | 83 | 36 | 12 | 91.7 | 103 | 75.3 | 18.6 | 0 | 98.9 | 97.3 | 86.5 | 15.4 | 0.3 | 97 | 95.4 | 88.7 | 5.2 | -0.1 | 0.498 | 0.371 | 0.271 | 0.328 | 0.26 | 15.3 | 14.2 | 18 | 17.2 | 18.9
O=C1O[C@H]([C@@H](O)CO)C(O)=C1O [ASCORBIC ACID] | 103 | 95.9 | 100 | 100 | 98.4 | 105 | 95.5 | 110 | 96.3 | 108 | 99.6 | 98.3 | 108 | 93.4 | 101 | 109 | 98.8 | 99.8 | 100 | 102 | 99.7 | 112 | 106 | 103 | 103 | > 10 | > 10 | > 10 | > 10 | > 10 | 0 | 0 | 0 | 0 | 0
O=CN1CCC(C(=O)NCCN2CCC(=C3c4ccccc4C=Cc4ccccc43)CC2)CC1 [AT-1015] | 101 | 108 | 104 | 105 | 93.8 | 93.2 | 103 | 89.2 | 97.7 | 88.7 | 104 | 99.9 | 98.2 | 102 | 77 | 96.3 | 97.4 | 94.8 | 96.8 | 91.4 | 104 | 108 | 110 | 103 | 99.8 | > 10 | > 10 | > 10 | > 10 | > 10 | 0 | 0 | 0.7 | 0 | 0
CNC(=O)c1cccc(-c2ccc3c(N4CCOC[C@@H]4C)nc(N4CCOC[C@@H]4C)nc3n2)c1 [AZD2014] | 106 | 98.5 | 83.8 | 38.8 | 30.6 | 89.4 | 87.5 | 74.3 | 27.7 | 22.9 | 94 | 95.4 | 86.4 | 39 | 22 | 95.8 | 94.9 | 96.7 | 66.7 | 19.4 | 94.7 | 99.4 | 85.4 | 70.1 | 37.2 | 0.235 | 0.154 | 0.348 | 1.2 | 0.762 | 13.3 | 16.1 | 13 | 8.5 | 7.5
COc1cc(CCc2cc(NC(=O)c3ccc(N4CC(C)NC(C)C4)cc3)n[nH]2)cc(OC)c1 (stereo not given) [AZD4547] | 87.5 | 93.8 | 99.3 | 104 | 80.4 | 101 | 107 | 93.8 | 99.4 | 99.8 | 95.7 | 105 | 87.3 | 90.7 | 37 | 101 | 94.8 | 95.2 | 88.2 | 49.5 | 95.7 | 98.1 | 92.5 | 96.2 | 100 | > 10 | > 10 | 1.99 | 1.61 | > 10 | 0.2 | 0 | 5 | 4.5 | 0
CC(C)C[C@@H]1NC(=O)[C@@H](C(C)C)NC(=O)[C@@H]2CCCN2C(=O)[C@@H](CC(=O)O)NC(=O)[C@@H](Cc2c[nH]c3ccccc23)NC1=O [BQ-123] | 96.4 | 93.2 | 103 | 91.4 | 109 | 93.7 | 94.5 | 95.8 | 90.6 | 100 | 95.4 | 100 | 98 | 110 | 108 | 99.7 | 96 | 101 | 95 | 101 | 96.2 | 102 | 92.2 | 99.7 | 104 | > 10 | > 10 | > 10 | > 10 | > 10 | 0 | 0 | 0 | 0 | 0
N[C@H](Cc1ccccc1)C(=O)O [D-phenylalanine] | 94.6 | 101 | 90.8 | 95.8 | 93.8 | 98.3 | 95.2 | 111 | 102 | 105 | 99.7 | 109 | 90.4 | 105 | 100 | 95.6 | 101 | 96.5 | 95.2 | 99.8 | 108 | 100 | 104 | 101 | 96.1 | > 10 | > 10 | > 10 | > 10 | > 10 | 0 | 0 | 0 | 0 | 0
Nc1ncnc2c1ncn2[C@H]1O[C@@H](C(=O)N2CCN(CC(=O)Nc3cccc4c3CNC4=O)CC2)[C@H](O)[C@@H]1O [EB-47] | 97.8 | 103 | 104 | 94.8 | 92.6 | 92 | 102 | 91.3 | 104 | 85.7 | 102 | 96.3 | 103 | 102 | 93.9 | 99.4 | 107 | 102 | 100 | 96.7 | 102 | 98.6 | 94.7 | 92.4 | 97.6 | > 10 | > 10 | > 10 | > 10 | > 10 | 0 | 0.1 | 0 | 0 | 0

— the supplement of paper PMC13380429
